This is an account of results in US10285982B2, “3-(1H-pyrrolo[2,3-B]pyridin-2-yl)-1H-pyrazolo[3,4-C]pyridines and therapeutic uses thereof” (Samumed, LLC, priority 2015, dated 2019).

For assay [1], the system named is primary human fibroblasts derived from IPF patients (LL29 cells) treated with TGF-β1. In words: Inhibition of fibrotic process, αSMA staining in TGF-β1 treated LL29 fibroblasts. The settings on record: Fibroblast; for EC50: 96 h, % αSMA positive LL29 cells, TGF-β1 20 ng/mL, 4 days; for inhibition at 10 µM: given where EC50 >10 μM, αSMA, LL29 cells, TGF-β1, read-out: percent inhibition at 10 μM. The format is cell-based. In a few lines:
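Compound dilutions from 10 μM down to […] are dispensed, LL29 cells added in F12 with 1% FBS, and TGF-β1 (20 ng/mL) follows after 1 h. After 4 days, live-cell αSMA positivity is measured by immunofluorescence and normalized to TGF-β1-treated wells to derive EC50.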

Assay [2] deals with primary human mesenchymal stem cells (hMSCs). In words: Chondrogenesis induction in hMSCs (nodule count). It counts as cell-based. The settings on record: 144 h, hMSC chondrogenesis, 6 days; for Emax: relative to TGF-β3 (10 ng/mL) positive control, read-out: Max. Activity as % TGF-β3 activity; for EC50: concentration required to induce 50% of TGF-β3 level, read-out: Conc. (nM) of 50% TGF-β3 activity. As to the method:
Representative compounds were screened using primary human mesenchymal stem cells (hMSCs) to determine their ability to induce chondrogenesis (process by which cartilage is developed).
Primary human mesenchymal stem cells (hMSCs) were purchased from Lonza (Walkersville, Md.) and expanded in Mesenchymal Stem Cell Growth Media (Lonza). Cells between passage 3 and 6 were used for the experiments.
Each compound was dissolved in DMSO as a 10 mM stock and used to prepare compound source plates. Serial dilution (1:3, 6-point dose-response curves from 2700 nM to 10 nM) and compound transfer was performed using the ECHO 550 (Labcyte, Sunnyvale, Calif.) into 96-well clear bottom assay plates (Greiner Bio-One) with appropriate DMSO backfill for a final DMSO concentration of 0.03%. hMSCs were plated at 20,000 cells/well in 250 μL/well Incomplete Chondrogenic Induction Medium (Lonza; DMEM, dexamethasone, ascorbate, insulin-transferrin-selenium [ITS supplement], gentamycin-amphotericin [GA-1000], sodium pyruvate, proline and L-glutamine). TGF-β3 (10 ng/mL) was used as a positive control for differentiation while negative control wells were treated with 75 nL DMSO for normalization and calculating EC50 values. Cells were incubated at 37° C. and 5% CO2 for 6 days. To image chondrogenic nodules, the cells were fixed using 4% formaldehyde (Electron Microscopy Sciences), and stained with 2 μg/mL Rhodamine B (Sigma-Aldrich) and 20 μM Nile Red (Sigma-Aldrich) [Johnson K., et. al, A Stem Cell-Based Approach to Cartilage Repair, Science, (2012), 336(6082), 717-721]. The nodules imaged (4 images per well at 4× magnification) by excitation at 531 nm and emission at 625 nm and quantified using the CellInsight CX5 (Thermo Scientific). Number of nodules in each well was normalized to the average of 3 DMSO treated wells on the same plate using Excel (Microsoft Inc.). The normalized averages (fold change over DMSO) of 3 replicate wells for each compound concentration were calculated. Due to solubility limitations of some of the compounds, curve fitting was incomplete leading to inaccurate EC50 determinations.
Using TGF-β3 as a positive control, the concentration of representative compounds required to induce 50% levels of chondrogenesis is reported. In addition, the maximum activity of each compound and the respective dose that each compound reached maximum chondrogenesis activity is reported.

The term inhibition denotes the share of the control response that was lost under treatment. Turning to `CN1CCN(c2ccnc3[nH]c(-c4n[nH]c5cnc(-c6cncc(N(C)C)c6)cc45)cc23)CC1` [Compound 231, N,N-Dimethyl-5-(3-(4-(4-methylpiperazin-1-yl)-1H-pyrrolo[2,3-b]pyridin-2-yl)-1H-pyrazolo[3,4-c]pyridin-5-yl)pyridin-3-amine], in assay [1], the EC50 was greater than 10 µM and the inhibition at 10 µM amounted to 41.8%. In addition, the Emax in assay [2] stood at 14%.
For the compound `CC(C)CC(=O)Nc1cncc(-c2cc3c(-c4cc5cccnc5[nH]4)n[nH]c3cn2)c1` [Compound 254, N-(5-(3-(1H-Pyrrolo[2,3-b]pyridin-2-yl)-1H-pyrazolo[3,4-c]pyridin-5-yl)pyridin-3-yl)-3-methylbutanamide], the EC50 in assay [1] was determined as 9.98 µM. For the same compound, in assay [2], the Emax was 40%.
The compound `CN1CCN(c2ccnc3[nH]c(-c4n[nH]c5cnc(-c6cncc(NC(=O)CC7CCNCC7)c6)cc45)cc23)CC1` [Compound 641, N-(5-(3-(4-(4-Methylpiperazin-1-yl)-1H-pyrrolo[2,3-b]pyridin-2-yl)-1H-pyrazolo[3,4-c]pyridin-5-yl)pyridin-3-yl)-2-(piperidin-4-yl)acetamide] showed an EC50 in assay [1] of 4.97 µM. Besides, in assay [2], the EC50 was 100 nM and the Emax is 341%.
As for `CN(C)CCNc1cc(F)cc(-c2ccnc3[nH]c(-c4n[nH]c5cnc(-c6cncnc6)cc45)cc23)c1` [Compound 475, N^1-(3-Fluoro-5-(2-(5-(pyrimidin-5-yl)-1H-pyrazolo[3,4-c]pyridin-3-yl)-1H-pyrrolo[2,3-b]pyridin-4-yl)phenyl)-N^2,N^2-dimethylethane-1,2-diamine], in assay [1], the EC50 was greater than 10 µM and the inhibition at 10 µM worked out at 27.5%. In addition, in assay [2], the Emax turned out to be 17%.
As to `Nc1cncc(-c2cc3c(-c4cc5c(-c6ccccc6F)ccnc5[nH]4)n[nH]c3cn2)c1` [Compound 59, 5-(3-(4-(2-Fluorophenyl)-1H-pyrrolo[2,3-b]pyridin-2-yl)-1H-pyrazolo[3,4-c]pyridin-5-yl)pyridin-3-amine], the EC50 in assay [1] turned out to be 0.386 µM. Also, in assay [2], the Emax is 32%.
The corresponding values for `CCNCc1cncc(-c2cc3c(-c4cc5c(-c6cccnc6)ccnc5[nH]4)n[nH]c3cn2)c1` [Compound 90, N-((5-(3-(4-(Pyridin-3-yl)-1H-pyrrolo[2,3-b]pyridin-2-yl)-1H-pyrazolo[3,4-c]pyridin-5-yl)pyridin-3-yl)methyl)ethanamine] are 1.63 µM and 49%.
In assay [1], `c1cncc(-c2ccnc3[nH]c(-c4n[nH]c5cnc(-c6cncc(CN7CCCC7)c6)cc45)cc23)c1` [Compound 98, 3-(4-(Pyridin-3-yl)-1H-pyrrolo[2,3-b]pyridin-2-yl)-5-(5-(pyrrolidin-1-ylmethyl)pyridin-3-yl)-1H-pyrazolo[3,4-c]pyridine] gave an EC50 of 8.15 µM. In addition, the Emax in assay [2] came out at 17%.
`CC(C)Nc1cncc(-c2cc3c(-c4cc5c(-c6cccnc6)ccnc5[nH]4)n[nH]c3cn2)c1` [Compound 96, N-Isopropyl-5-(3-(4-(pyridin-3-yl)-1H-pyrrolo[2,3-b]pyridin-2-yl)-1H-pyrazolo[3,4-c]pyridin-5-yl)pyridin-3-amine]: in assay [1], the EC50 is greater than 10 µM and the inhibition at 10 µM was determined as 0%. In assay [2], the EC50 is 10 nM and the Emax was 77%.
`CCNCc1cncc(-c2cc3c(-c4cc5c(-c6ccccc6F)ccnc5[nH]4)n[nH]c3cn2)c1` [Compound 62, N-((5-(3-(4-(2-Fluorophenyl)-1H-pyrrolo[2,3-b]pyridin-2-yl)-1H-pyrazolo [3,4-c]pyridin-5-yl)pyridin-3-yl)methyl)ethanamine]: in assay [1], the EC50 was greater than 10 µM and the inhibition at 10 µM came to 64.9%. In assay [2], the EC50 is 30 nM and the Emax turned out to be 270%.
For `CCCCC(=O)Nc1cncc(-c2cc3c(-c4cc5c(-c6cccnc6)ccnc5[nH]4)n[nH]c3cn2)c1` [Compound 103, N-(5-(3-(4-(Pyridin-3-yl)-1H-pyrrolo[2,3-b]pyridin-2-yl)-1H-pyrazolo[3,4-c]pyridin-5-yl)pyridin-3-yl)pentanamide], in assay [1], the EC50 was greater than 10 µM and the inhibition at 10 µM came to 4.8%. For the same compound, in assay [2], the EC50 was 10 nM and the Emax stood at 53%.
In the case of `CN(C)Cc1cncc(-c2cc3c(-c4cc5c(-c6ccncc6)ccnc5[nH]4)n[nH]c3cn2)c1` [Compound 125, N,N-Dimethyl-1-(5-(3-(4-(pyridin-4-yl)-1H-pyrrolo[2,3-b]pyridin-2-yl)-1H-pyrazolo[3,4-c]pyridin-5-yl)pyridin-3-yl)methanamine], the EC50 in assay [1] turned out to be 5.01 µM. In assay [2], the Emax was 33%.
For the compound `CCCC(=O)Nc1cncc(-c2cc3c(-c4cc5c(-c6cc(F)cc(NCCN(C)C)c6)ccnc5[nH]4)n[nH]c3cn2)c1` [Compound 465, N-(5-(3-(4-(3-((2-(Dimethylamino)ethyl)amino)-5-fluorophenyl)-1H-pyrrolo [2,3-b]pyridin-2-yl)-1H-pyrazolo[3,4-c]pyridin-5-yl)pyridin-3-yl)butyramide], in assay [1], the EC50 is greater than 10 µM and the inhibition at 10 µM turned out to be 43%. Besides, in assay [2], the EC50 amounted to 10 nM and the Emax is 162%.
`O=C(Nc1cncc(-c2cc3c(-c4cc5c(-c6ccncc6)ccnc5[nH]4)n[nH]c3cn2)c1)C1CCCCC1` [Compound 135, N-(5-(3-(4-(Pyridin-4-yl)-1H-pyrrolo[2,3-b]pyridin-2-yl)-1H-pyrazolo[3,4-c]pyridin-5-yl)pyridin-3-yl)cyclohexanecarboxamide]: in assay [1], the EC50 is greater than 10 µM and the inhibition at 10 µM turned out to be 10.8%.
Take `O=C(Cc1ccccc1)Nc1cncc(-c2cc3c(-c4cc5cccnc5[nH]4)n[nH]c3cn2)c1` [Compound 262, N-(5-(3-(1H-Pyrrolo[2,3-b]pyridin-2-yl)-1H-pyrazolo[3,4-c]pyridin-5-yl)pyridin-3-yl)-2-phenylacetamide]: in assay [1], the EC50 was greater than 10 µM and the inhibition at 10 µM stood at 45.5%.
The compound `Nc1cncc(-c2cc3c(-c4cc5c(-c6ccoc6)ccnc5[nH]4)n[nH]c3cn2)c1` [Compound 311, 5-(3-(4-(Furan-3-yl)-1H-pyrrolo[2,3-b]pyridin-2-yl)-1H-pyrazolo[3,4-c]pyridin-5-yl)pyridin-3-amine] had an EC50 in assay [1] of 1.03 µM.
In assay [1], `CCC(=O)Nc1cncc(-c2cc3c(-c4cc5c(-c6cccc(F)c6)ccnc5[nH]4)n[nH]c3cn2)c1` [Compound 1, N-(5-(3-(4-(3-Fluorophenyl)-1H-pyrrolo[2,3-b]pyridin-2-yl)-1H-pyrazolo [3,4-c]pyridin-5-yl)pyridin-3-yl)propionamide] gave an EC50 of 1.62 µM.
In the case of `Cn1cc(-c2cc3c(-c4cc5cccnc5[nH]4)n[nH]c3cn2)cn1` [Compound 652, 5-(1-Methyl-1H-pyrazol-4-yl)-3-(1H-pyrrolo[2,3-b]pyridin-2-yl)-1H-pyrazolo[3,4-c]pyridine], the EC50 in assay [1] came to 0.473 µM.
Turning to `CC(C)(C)C(=O)Nc1cncc(-c2cc3c(-c4cc5c(-c6cccnc6)ccnc5[nH]4)n[nH]c3cn2)c1` [Compound 92, N-(5-(3-(4-(Pyridin-3-yl)-1H-pyrrolo[2,3-b]pyridin-2-yl)-1H-pyrazolo[3,4-c]pyridin-5-yl)pyridin-3-yl)pivalamide], in assay [1], the EC50 was greater than 10 µM and the inhibition at 10 µM was determined as 2.4%.
In assay [1], `c1csc(-c2ccnc3[nH]c(-c4n[nH]c5cnc(-c6cncc(OC7CCCCC7)c6)cc45)cc23)c1` [Compound 703, 5-(5-(Cyclohexyloxy)pyridin-3-yl)-3-(4-(thiophen-2-yl)-1H-pyrrolo[2,3-b]pyridin-2-yl)-1H-pyrazolo[3,4-c]pyridine] registered an EC50 of 1.73 µM.
The same measure, in the same setting: as for `CN(C)CCNc1cc(F)cc(-c2ccnc3[nH]c(-c4n[nH]c5cnc(-c6ccncc6)cc45)cc23)c1` [Compound 466, N^1-(3-Fluoro-5-(2-(5-(pyridin-4-yl)-1H-pyrazolo[3,4-c]pyridin-3-yl)-1H-pyrrolo[2,3-b]pyridin-4-yl)phenyl)-N^2,N^2-dimethylethane-1,2-diamine], the figure is 1.74 µM.
